What was measured:
Human P2Y12 receptor = molecular target: T1, Human P2Y12 receptor (Homo sapiens, UniProt Q9H244); assay: Human P2Y12 receptor cell membrane binding assay with [3H] 2-Mes-ADP; details: 1 nM [3H] 2-Mes-ADP, membranes of HEK cells expressing P2Y12 receptor; read-out: Binding activity (IC50)
T1 construct: expressed in transfected cells; host or cells: HEK cells
In short: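 Membranes from HEK cells expressing human P2Y12 were incubated with compound and 1 nM [3H]2-MeS-ADP for 1 h at room temperature. Bound radioactivity was collected by GF/B filtration.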

[1] = test system: Human platelet aggregation caused by ADP; assay: Inhibition of ADP-induced platelet aggregation (Mimic-human PRP); type: cell-based; details: 20 μM ADP, human platelet concentrate diluted with PPP, absorption at 595 nm
In short: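 Human PRP diluted with PPP to 3–4×10^8 platelets/mL was preincubated 20 min at room temperature with compound (0.01–30 μM, DMSO), then stimulated with 20 μM ADP. Aggregation read as A595 increase at 3 min versus 0 and 20 μM ADP controls; Ki from sigmoidal non-linear regression.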

T1 sequence (Q9H244 whole entry): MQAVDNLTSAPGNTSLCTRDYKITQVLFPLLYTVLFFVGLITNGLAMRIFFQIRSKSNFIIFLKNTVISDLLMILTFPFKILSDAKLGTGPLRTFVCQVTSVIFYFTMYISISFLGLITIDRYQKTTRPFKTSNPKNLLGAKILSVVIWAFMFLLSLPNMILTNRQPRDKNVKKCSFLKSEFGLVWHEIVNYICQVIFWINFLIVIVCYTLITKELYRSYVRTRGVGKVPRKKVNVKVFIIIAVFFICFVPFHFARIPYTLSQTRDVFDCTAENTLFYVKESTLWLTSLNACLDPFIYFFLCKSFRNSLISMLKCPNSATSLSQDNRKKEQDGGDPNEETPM

## CCCc1cc2c(N3CCn4c(nnc4C(F)(F)F)C3)nc(C(=O)N3CCC(O)C3)nc2s1 (stereo not shown) [Example 4-12, (3-Hydroxy-pyrrolidin-1-yl)-[6-propyl-4-(3-trifluoromethyl-5,6-dihydro-8H-[1,2,4]triazolo[4,3-a]pyrazin-7-yl)thieno[2,3-d]pyrimidin-2-yl]methanon]
Human P2Y12 receptor
  IC50: 1100 nM
[1]
  Ki: 95 nM

## CCCc1cc2c(N3CCn4c(nnc4C(F)(F)F)C3)nc(C(=O)N3CCN(C)CC3)nc2s1 [Example 4-13, (4-Methyl-piperazin-1-yl)-[6-propyl-4-(3-trifluoromethyl-5,6-dihydro-8H-[1,2,4]triazolo[4,3-a]pyrazin-7-yl)thieno[2,3-d]pyrimidin-2-yl]methanone]
Human P2Y12 receptor
  IC50: 4920 nM
[1]
  Ki: 1800 nM

## CCCc1cc2c(N3CCn4c(nnc4C(F)(F)F)C3)nc(C(=O)N3CCCC(C(=O)OCC)C3)nc2s1 (stereo not shown) [Example 4-14, 1-[6-Propyl-4-(3-trifluoromethyl-5,6-dihydro-8H-[1,2,4]triazolo[4,3-a]pyrazin-7-yl)thieno[2,3-d]pyrimidine-2-carbonyl]piperidine-3-carboxylic acid ethyl ester]
Human P2Y12 receptor
  IC50: 1290 nM
[1]
  Ki: 460 nM

## CCCc1cc2c(N3CCn4c(nnc4C(F)(F)F)C3)nc(C(=O)N3CCCC(C(=O)O)C3)nc2s1 (stereo not shown) [Example 4-15, 1-[6-Propyl-4-(3-trifluoromethyl-5,6-dihydro-8H-[1,2,4]triazolo[4,3-a]pyrazin-7-yl)thieno[2,3-d]pyrimidine-2-carbonyl]piperidine-3-carboxylic acid]
Human P2Y12 receptor
  IC50: 630 nM
[1]
  Ki: 690 nM

## CCCc1cc2c(N3CCn4c(nnc4C(F)(F)F)C3)nc(C(=O)Nc3ccccc3)nc2s1 [Example 4-16, 6-Propyl-4-(3-trifluoromethyl-5,6-dihydro-8H-[1,2,4]triazolo[4,3-a]pyrazin-7-yl)-thieno[2,3-d]pyrimidine-2-carboxylic acid phenylamide]
Human P2Y12 receptor
  IC50: 650 nM
[1]
  Ki: > 4000 nM

## CCCc1cc2c(N3CCn4c(nnc4C(F)(F)F)C3)nc(C(=O)NCc3ccccc3)nc2s1 [Example 4-17, 6-Propyl-4-(3-trifluoromethyl-5,6-dihydro-8H-[1,2,4]triazolo[4,3-a]pyrazin-7-yl)thieno[2,3-d]pyrimidine-2-carboxylic acid benzylamide]
Human P2Y12 receptor
  IC50: 210 nM
[1]
  Ki: 1600 nM

## CCc1cc2c(N3CCn4c(nnc4C(F)(F)F)C3)nc(CO)nc2s1 [Example 4-18, [6-Ethyl-4-(3-trifluoromethyl-5,6-dihydro-8H-[1,2,4]triazolo[4,3-a]pyrazin-7-yl)thieno[2,3-d]pyrimidin-2-yl]methanol]
Human P2Y12 receptor
  IC50: 1530 nM
[1]
  Ki: 1600 nM

## CCCc1cc2c(N3CCn4c(nnc4C(F)(F)F)C3)nc(CO)nc2s1 [Example 4-19, [6-Propyl-4-(3-trifluoromethyl-5,6-dihydro-8H-[1,2,4]triazolo[4,3-a]pyrazin-7-yl)-thieno[2,3-d]pyrimidin-2-yl]methanol]
Human P2Y12 receptor
  IC50: 500 nM
[1]
  Ki: 250 nM

## CCCc1cc2c(N3CCn4c(nnc4C(F)(F)F)C3)nc(CN3CC[C@@H](O)C3)nc2s1 [Example 4-21, (R)-1-[6-Propyl-4-(3-trifluoromethyl-5,6-dihydro-8H-[1,2,4]triazolo[4,3-a]pyrazin-7-yl)thieno[2,3-d]pyrimidin-2-ylmethyl]pyrrolidin-3-ol]
Human P2Y12 receptor
  IC50: 1110 nM
[1]
  Ki: 140 nM

## CCCc1cc2c(N3CCn4c(nnc4C(F)(F)F)C3)nc(COC(=O)c3ccccc3)nc2s1 [Example 4-22, Benzoic Acid 6-propyl-4-(3-trifluoromethyl-5,6-dihydro-8H-[1,2,4]triazolo[4,3-a]pyrazin-7-yl)thieno[2,3-d]pyrimidin-2-ylmethyl ester]
Human P2Y12 receptor
  IC50: 850 nM
[1]
  Ki: 1600 nM

## CCCc1cc2c(N3CCn4c(nnc4C(F)(F)F)C3)nc(COc3ccccc3)nc2s1 [Example 4-23, 7-(2-Phenoxymethyl-6-propyl-thieno[2,3-d]pyrimidin-4-yl)-3-trifluoromethyl-5,6,7,8-tetrahydro-[1,2,4]triazolo[4,3-a]pyrazine]
Human P2Y12 receptor
  IC50: 420 nM
[1]
  Ki: 6850 nM

## CCCc1cc2c(N3CCn4c(nnc4C(F)(F)F)C3)nc(COc3ccccc3C(=O)OC)nc2s1 [Example 4-24, 2-[6-Propyl-4-(3-trifluoromethyl-5,6-dihydro-8H-[1,2,4]triazolo[4,3-a]pyrazin-7-yl)thieno[2,3-d]pyrimidin-2-ylmethoxy]benzoic acid methyl ester]
Human P2Y12 receptor
  IC50: 700 nM
[1]
  Ki: 8100 nM

## CCCc1cc2c(N3CCn4c(nnc4C(F)(F)F)C3)nc(COc3ccccc3C(=O)O)nc2s1 [Example 4-25, 2-[6-Propyl-4-(3-trifluoromethyl-5,6-dihydro-8H-[1,2,4]triazolo[4,3-a]pyrazin-7-yl)thieno[2,3-d]pyrimidin-2-ylmethoxy]benzoic acid]
Human P2Y12 receptor
  IC50: 353 nM
[1]
  Ki: 1900 nM

## CCCc1cc2c(N3CCn4c(nnc4C(F)(F)F)C3)nc(COc3cccc(C(=O)O)c3)nc2s1 [Example 4-26, 3-[6-Propyl-4-(3-trifluoromethyl-5,6-dihydro-8H-[1,2,4]triazolo[4,3-a]pyrazin-7-yl)thieno[2,3-d]pyrimidin-2-ylmethoxy]benzoic acid]
Human P2Y12 receptor
  IC50: 160 nM
[1]
  Ki: 2100 nM

## CCCc1cc2c(N3CCn4c(nnc4C(F)(F)F)C3)nc(-c3nc(CC)no3)nc2s1 [Example 4-27, 7-[2-(3-Ethyl-[1,2,4]oxadiazol-5-yl)-6-propyl-thieno[2,3-d]pyrimidin-4-yl]-3-trifluoromethyl-5,6,7,8-tetrahydro-[1,2,4]triazolo[4,3-a]pyrazine]
Human P2Y12 receptor
  IC50: 130 nM
[1]
  Ki: 1500 nM

## CCCc1cc2c(N3CCn4c(nnc4C(F)(F)F)C3)nc(-c3nc(-c4ccccc4)no3)nc2s1 [Example 4-28, 7-[2-(3-Phenyl-[1,2,4]oxadiazol-5-yl)-6-propyl-thieno[2,3-d]pyrimidin-4-yl)-3-trifluoromethyl-5,6,7,8-tetrahydro-[1,2,4]triazolo[4,3-a]pyrazine]
Human P2Y12 receptor
  IC50: 330 nM
[1]
  Ki: 670 nM

## CCCc1cc2c(N3CCn4c(nnc4C(F)(F)F)C3)nc(-c3nc(CCOC)no3)nc2s1 [Example 4-29, 7-{2-[3-(2-Methoxy-ethyl)-[1,2,4]oxadiazol-5-yl]-6-propyl-thieno[2,3-d]pyrimidin-4-yl}-3-trifluoromethyl-5,6,7,8-tetrahydro-[1,2,4]triazolo[4,3-a]pyrazine]
Human P2Y12 receptor
  IC50: 330 nM
[1]
  Ki: 480 nM

## CCCc1cc2c(N3CCn4c(nnc4C(F)(F)F)C3)nc(-c3nc(CCO)no3)nc2s1 [Example 4-30, 2-{5-[6-Propyl-4-(3-trifluoromethyl-5,6-dihydro-8H-[1,2,4]triazolo[4,3-a]pyrazin-7-yl)thieno[2,3-d]pyrimidin-2-yl]-[1,2,4]oxadiazol-3-yl}ethanol]
Human P2Y12 receptor
  IC50: 6500 nM
[1]
  Ki: 830 nM

## CCCc1cc2c(N3CCn4c(nnc4C(F)(F)F)C3)nc(-c3nc(CC(OC)OC)no3)nc2s1 [Example 4-31, 7-{2-[3-(2,2-Dimethoxy-ethyl)-[1,2,4]oxadiazol-5-yl]-6-propyl-thieno[2,3-d]pyrimidin-4-yl}-3-trifluoromethyl-5,6,7,8-tetrahydro-[1,2,4]triazolo[4,3-a]pyrazine]
Human P2Y12 receptor
  IC50: 420 nM
[1]
  Ki: > 4000 nM

## CCCc1cc2c(N3CCn4c(nnc4C(F)(F)F)C3)nc(-c3nnc(C)o3)nc2s1 [Example 4-32, 7-[2-(5-Methyl-[1,3,4]oxadiazol-2-yl)-6-propyl-thieno[2,3-d]pyrimidin-4-yl]-3-trifluoromethyl-5,6,7,8-tetrahydro-[1,2,4]triazolo[4,3-a]pyrazine]
Human P2Y12 receptor
  IC50: 230 nM
[1]
  Ki: 150 nM

## CCCc1cc2c(N3CCn4c(nnc4C(F)(F)F)C3)nc(-c3nnc(-c4ccccc4)o3)nc2s1 [Example 4-33, 7-[2-(5-Phenyl-[1,3,4]oxadiazol-2-yl)-6-propyl-thieno[2,3-d]pyrimidin-4-yl]-3-trifluoromethyl-5,6,7,8-tetrahydro-[1,2,4]triazolo[4,3-a]pyrazine]
Human P2Y12 receptor
  IC50: 75 nM
[1]
  Ki: 100 nM

## CCCc1cc2c(N3CCn4c(nnc4C(F)(F)F)C3)nc(-c3nnc(CC#N)o3)nc2s1 [Example 4-34, {5-[6-Propyl-4-(3-trifluoromethyl-5,6-dihydro-8H-[1,2,4]triazolo[4,3-a]pyrazin-7-yl)thieno[2,3-d]pyrimidin-2-yl]-[1,3,4]oxadiazol-2-yl}acetonitrile]
Human P2Y12 receptor
  IC50: 68 nM
[1]
  Ki: 13 nM

## CCCc1cc2c(N3CCn4c(nnc4C(F)(F)F)C3)nc(-c3nnc(COC)o3)nc2s1 [Example 4-35, 7-[2-(5-Methoxymethyl-[1,3,4]oxadiazol-2-yl)-6-propyl-thieno[2,3-d]pyrimidin-4-yl]-3-trifluoromethyl-5,6,7,8-tetrahydro-[1,2,4]triazolo[4,3-a]pyrazine]
Human P2Y12 receptor
  IC50: 130 nM
[1]
  Ki: 30 nM

## CCCc1cc2c(N3CCn4c(nnc4C(F)(F)F)C3)nc(-c3nnc(CO)o3)nc2s1 [Example 4-36, {5-[6-Propyl-4-(3-trifluoromethyl-5,6-dihydro-8H-[1,2,4]triazolo[4,3-a]pyrazin-7-yl)thieno[2,3-d]pyrimidin-2-yl]-[1,3,4]oxadiazol-2-yl}methanol]
Human P2Y12 receptor
  IC50: 250 nM
[1]
  Ki: 300 nM

## CCCc1cc2c(N3CCn4c(nnc4C(F)(F)F)C3)nc(-c3nnc(CCOC)o3)nc2s1 [Example 4-37, 7-{2-[5-(2-Methoxyethyl)-[1,3,4]oxadiazol-2-yl]-6-propyl-thieno[2,3-d]pyrimidin-4-yl}-3-trifluoromethyl-5,6,7,8-tetrahydro-[1,2,4]triazolo[4,3-a]pyrazine]
Human P2Y12 receptor
  IC50: 192 nM
[1]
  Ki: 250 nM

## CCCc1cc2c(N3CCn4c(nnc4C(F)(F)F)C3)nc(-c3nnc(CCO)o3)nc2s1 [Example 4-38, 2-{5-[6-Propyl-4-(3-trifluoromethyl-5,6-dihydro-8H-[1,2,4]triazolo[4,3-a]pyrazin-7-yl)thieno[2,3-d]pyrimidin-2-yl]-[1,3,4]oxadiazol-2-yl}ethanol]
Human P2Y12 receptor
  IC50: 320 nM
[1]
  Ki: 250 nM

From patent US20110166121A1 (LG LIFE SCIENCES LTD., priority 2008, published 2011)
